The results in this text go back to US20090306003A1, “Pesticide Delivery System” (priority 2006, published 2009).

The nature of this series: logP by chromatography, internally standardized with toluene and triphenylene. The settings on record: pH = 7. It counts as physicochemical. The method, then: Microblends of herbicides were prepared using melts of mixtures of nonionic block copolymer and ethoxylated surfactants. Specifically, tristyrylphenol etoxylate (Soprophor BSU, Rhodia) was used in combination with Pluronic P123 (PEO20-PPO69-PEO20), The list of the herbicides and corresponding log P values (the log P values were measured according procedure described by Donovan and Pescatore, J. Chromatography A 2002, 952, 47-61) are presented in Table 24. All log P values were measured at pH 7, except for clethodim, measured at pH 2. First, a stock blend of Pluronic P123 and Soprophor BSU was prepared by melting together 50 g of Pluronic P123 with 50 g of Soprophor BSU at 70° C. to form a clear, homogeneous melt. Composition of the copolymer/surfactant mixture was P123:Soprophor=1:1 by weight. […] The mixtures were heated at 70° C. for 10 min and shaken.

Take `COP(=S)(OC)Oc1c(Cl)cc(C)cc1Cl` [Tolclofos-methyl]: the “logP Average” value turned out to be 4.418.

Turning to Trisulfuron-methyl, the “logP Average” value was found to be 0.510.
